The target of this test is human PAD4 (Homo sapiens (Human), UniProt Q9UM07). Kind of test: In Vitro PAD4 BAEE Biochemical Assay. The settings on record: human PAD4, BAEE substrate; 5 nM PAD4, 2 mM calcium chloride, 3 mM BAEE; geometric mean of multiple experiments. The procedure, abridged: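 Recombinant human PAD4 (His-SUMO tag removed, E. coli-expressed), 5 nM, preincubated with compound and 2 mM CaCl2 30 min at 25 °C in MOPS pH 7.6 with DTT; 3 mM BAEE added for 2 h at 25 °C, EDTA stop. Released ammonia detected by o-phthalaldehyde/DTT fluorescence (ex 405, em 535 nm).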
human PAD4, sequence (Q9UM07 2-663): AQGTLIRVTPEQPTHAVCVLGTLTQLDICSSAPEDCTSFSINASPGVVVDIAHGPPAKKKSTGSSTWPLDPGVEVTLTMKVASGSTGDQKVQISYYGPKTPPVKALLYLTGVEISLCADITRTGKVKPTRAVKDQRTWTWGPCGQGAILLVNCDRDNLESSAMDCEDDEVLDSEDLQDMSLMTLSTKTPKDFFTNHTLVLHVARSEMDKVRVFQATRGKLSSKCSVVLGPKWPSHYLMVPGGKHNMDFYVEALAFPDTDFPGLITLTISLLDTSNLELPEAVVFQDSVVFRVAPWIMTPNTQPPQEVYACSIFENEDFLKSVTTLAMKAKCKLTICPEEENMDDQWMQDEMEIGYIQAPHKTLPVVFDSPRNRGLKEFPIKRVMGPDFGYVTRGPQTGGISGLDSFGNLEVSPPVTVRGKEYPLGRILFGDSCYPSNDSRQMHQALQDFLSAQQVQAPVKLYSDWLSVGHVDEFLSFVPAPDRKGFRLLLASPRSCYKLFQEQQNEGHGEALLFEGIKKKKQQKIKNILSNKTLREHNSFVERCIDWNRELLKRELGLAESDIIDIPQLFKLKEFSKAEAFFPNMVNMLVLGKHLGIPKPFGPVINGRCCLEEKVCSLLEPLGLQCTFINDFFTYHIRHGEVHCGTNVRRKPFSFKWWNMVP
In general, IC50 refers to the midpoint of a concentration-inhibition curve. With `COc1cc(C(=O)N2CC[C@@H]3OCCN[C@@H]3C2)cc2nc(-c3cc4ccc(N(C(F)F)S(C)(=O)=O)nc4n3CC3CC3)n(C3CC3)c12` [Example 69, N-(2-(1-cyclopropyl-7-methoxy-5-((4aR,8aS)-octahydro-2H-pyrido[4,3-b][1,4]oxazine-6-carbonyl)-1H-benzo[d]imidazol-2-yl)-1-(cyclopropylmethyl)-1H-pyrrolo[2,3-b]pyridin-6-yl)-N-(difluoromethyl) methanesulfonamide], the IC50 is 50 µM.
As for `COc1cc(C(=O)N[C@H]2CNC[C@@H]2NC(C)=O)cc2nc(-c3cc4ccc(N(C(F)F)S(C)(=O)=O)nc4n3CC3CC3)n(C)c12` [Example 70, N-((3S,4S)-4-acetamidopyrrolidin-3-yl)-2-(1-(cyclopropylmethyl)-6-((N-(difluoromethyl)methyl)sulfonamido)-1H-pyrrolo[2,3-b]pyridin-2-yl)-7-methoxy-1-methyl-1H-benzo[d]imidazole-5-carboxamide], the figure is 39.4 µM.
Regarding `COc1cc(C(=O)N[C@@H]2CCNC2)cc2nc(-c3cc4ccc(N(C(F)F)S(C)(=O)=O)nc4n3CC3CC3)n(C)c12` [Example 72, (R)-2-(1-(cyclopropylmethyl)-6-((N-(difluoromethyl)methyl)sulfonamido)-1H-pyrrolo[2,3-b]pyridin-2-yl)-7-methoxy-1-methyl-N-(pyrrolidin-3-yl)-1H-benzo[d] imidazole-5-carboxamide], the IC50 worked out at 20.9 µM.
The value for `COc1cc(C(=O)N2CC3CCCC3(N)C2)cc2nc(-c3cc4ccc(N(C(F)F)S(C)(=O)=O)nc4n3CC3CC3)n(C)c12` (stereo not drawn) [Example 73, N-(2-(5-(3a-aminooctahydrocyclopenta[c]pyrrole-2-carbonyl)-7-methoxy-1-methyl-1H-benzo[d]imidazol-2-yl)-1-(cyclopropylmethyl)-1H-pyrrolo[2,3-b]pyridin-6-yl)-N-(difluoromethyl) methanesulfonamide] was 7.2 µM; that for `COc1cc(C(=O)N2CCCC3(CCCN3)C2)cc2nc(-c3cc4ccc(N(C(F)F)S(C)(=O)=O)nc4n3CC3CC3)n(C)c12` (stereo not drawn) [Example 74, N-(1-(cyclopropylmethyl)-2-(7-methoxy-1-methyl-5-(1,7-diazaspiro[4.5]decane-7-carbonyl)-1H-benzo[d]imidazol-2-yl)-1H-pyrrolo[2,3-b]pyridin-6-yl)-N-(difluoromethyl) methanesulfonamide] was 50 µM; that for `COc1cc(C(=O)N2CCCC3(CCN3)C2)cc2nc(-c3cc4ccc(N(C(F)F)S(C)(=O)=O)nc4n3CC3CC3)n(C)c12` (stereo not drawn) [Example 75, N-(1-(cyclopropylmethyl)-2-(7-methoxy-1-methyl-5-(1,6-diazaspiro[3.5]nonane-6-carbonyl)-1H-benzo[d]imidazol-2-yl)-1H-pyrrolo[2,3-b]pyridin-6-yl)-N-(difluoromethyl) methanesulfonamide] was 50 µM.
For `COc1cc(C(=O)N2CC3(CCCCN3)C2)cc2nc(-c3cc4ccc(N(C(F)F)S(C)(=O)=O)nc4n3CC3CC3)n(C)c12` [Example 76, N-(1-(cyclopropylmethyl)-2-(7-methoxy-1-methyl-5-(2,5-diazaspiro[3.5]nonane-2-carbonyl)-1H-benzo[d]imidazol-2-yl)-1H-pyrrolo[2,3-b]pyridin-6-yl)-N-(difluoromethyl) methanesulfonamide], the IC50 was 50 µM.
As to `COc1cc(C(=O)N2CC3(CCCN3)C2)cc2nc(-c3cc4ccc(N(C(F)F)S(C)(=O)=O)nc4n3CC3CC3)n(C)c12` [Example 77, N-(1-(cyclopropylmethyl)-2-(7-methoxy-1-methyl-5-(2,5-diazaspiro[3.4]octane-2-carbonyl)-1H-benzo[d]imidazol-2-yl)-1H-pyrrolo[2,3-b]pyridin-6-yl)-N-(difluoromethyl) methanesulfonamide], the IC50 is 50 µM.
As for `COc1cc(C(=O)N2CC3CCC3(N)C2)cc2nc(-c3cc4ccc(N(C(F)F)S(C)(=O)=O)nc4n3CC3CC3)n(C)c12` (stereo not drawn) [Example 78, N-(2-(5-(1-amino-3-azabicyclo[3.2.0]heptane-3-carbonyl)-7-methoxy-1-methyl-1H-benzo[d]imidazol-2-yl)-1-(cyclopropylmethyl)-1H-pyrrolo[2,3-b]pyridin-6-yl)-N-(difluoromethyl) methanesulfonamide], the figure is 0.655 µM.
As to `COc1cc(C(=O)N2[C@H]3CC[C@@H]2[C@H](N)C3)cc2nc(-c3cc4ccc(N(C)S(C)(=O)=O)nc4n3CC3CC3)n(C)c12` [Example 79, N-(2-(5-((1R,2R,4S)-2-amino-7-azabicyclo[2.2.1]heptane-7-carbonyl)-7-methoxy-1-methyl-1H-benzo[d]imidazol-2-yl)-1-(cyclopropylmethyl)-1H-pyrrolo[2,3-b]pyridin-6-yl)-N-methyl-methanesulfonamide], the 50% inhibitory concentration (IC50) came to 0.0336 µM.
As for `C=CC(=O)N[C@@H]1CNC[C@H]1NC(=O)c1cc(OC)c2c(c1)nc(-c1cc3ccc(N(C(F)F)S(C)(=O)=O)nc3n1CC1CC1)n2C` [Example 80, N-((3R,4R)-4-acrylamidopyrrolidin-3-yl)-2-(1-(cyclopropylmethyl)-6-((N-(difluoromethyl)methyl)sulfonamido)-1H-pyrrolo[2,3-b]pyridin-2-yl)-7-methoxy-1-methyl-1H-benzo[d] imidazole-5-carboxamide], the figure is 0.24 µM.
As for `C#CC(=O)N[C@@H]1CNC[C@H]1NC(=O)c1cc(OC)c2c(c1)nc(-c1cc3ccc(N(C(F)F)S(C)(=O)=O)nc3n1CC1CC1)n2C` [Example 81, 2-(1-(cyclopropylmethyl)-6-((N-(difluoromethyl)methyl)sulfonamido)-1H-pyrrolo[2,3-b]pyridin-2-yl)-7-methoxy-1-methyl-N-((3R,4R)-4-propiolamidopyrrolidin-3-yl)-1H-benzo[d]imidazole-5-carboxamide], the figure is 4.63 µM; as for `COc1cc(C(=O)N2C[C@@H]3C[C@@H](N)[C@H]2C3)cc2nc(-c3cc4ccc(N(C(F)F)S(C)(=O)=O)nc4n3CC3CC3)n(C)c12` [Example 82, N-(2-(5-((1R,4R,6R)-6-amino-2-azabicyclo[2.2.1]heptane-2-carbonyl)-7-methoxy-1-methyl-1H-benzo[d]imidazol-2-yl)-1-(cyclopropylmethyl)-1H-pyrrolo[2,3-b]pyridin-6-yl)-N-(difluoromethyl) methanesulfonamide], 47.6 µM.
`COc1cc(C(=O)N[C@@H]2CNC[C@H]2NC(=O)CCCN(C)C)cc2nc(-c3cc4ccc(N(C(F)F)S(C)(=O)=O)nc4n3CC3CC3)n(C)c12` [Example 83, 2-(1-(cyclopropylmethyl)-6-((N-(difluoromethyl)methyl)sulfonamido)-1H-pyrrolo[2,3-b]pyridin-2-yl)-N-((3R,4R)-4-(4-(dimethylamino)butanamido)pyrrolidin-3-yl)-7-methoxy-1-methyl-1H-benzo[d]imidazole-5-carboxamide]: the concentration for half-maximal inhibition (IC50) worked out at 50 µM.
As to `COc1cc(C(=O)N2[C@H]3CC[C@@H]2[C@H](N)C3)cc2nc(-c3cc4ccc(N(C(C)C)S(C)(=O)=O)nc4n3CC3CC3)n(C)c12` [Example 84, N-(2-(5-((1R,2R,4S)-2-amino-7-azabicyclo[2.2.1]heptane-7-carbonyl)-7-methoxy-1-methyl-1H-benzo[d]imidazol-2-yl)-1-(cyclopropylmethyl)-1H-pyrrolo[2,3-b]pyridin-6-yl)-N-isopropylmethanesulfonamide], the IC50 is 0.0583 µM.
As to `COc1cc(C(=O)N2[C@@H]3CC[C@@H](N)[C@H]2CC3)cc2nc(-c3cc4ccc(N(C(C)C)S(C)(=O)=O)nc4n3CC3CC3)n(C)c12` [Example 85, N-(2-(5-((1R,2R,5R)-2-amino-8-azabicyclo[3.2.1]octane-8-carbonyl)-7-methoxy-1-methyl-1H-benzo[d]imidazol-2-yl)-1-(cyclopropylmethyl)-1H-pyrrolo [2,3-b]pyridin-6-yl)-N-isopropyl-methanesulfonamide], the IC50 was 0.0698 µM.
As for `COc1cc(C(=O)N[C@H]2CCNC2)cc2nc(-c3cc4ccc(N(C(F)F)S(C)(=O)=O)nc4n3CC3CC3)n(C)c12` [Example 88, (S)-2-(1-(cyclopropylmethyl)-6-((N-(difluoromethyl)methyl)sulfonamido)-1H-pyrrolo[2,3-b]pyridin-2-yl)-7-methoxy-1-methyl-N-(pyrrolidin-3-yl)-1H-benzo[d]imidazole-5-carboxamide], the figure is 50 µM.
For the molecule `CN(c1ccc2cc(-c3nc4cc(C(=O)N5CCC[C@@H](N)C5)cc5c4n3CCO5)n(CC3CC3)c2n1)S(C)(=O)=O` [Example 89, (R)-N-(2-(7-(3-aminopiperidine-1-carbonyl)-3,4-dihydro-5-oxa-1,2a-diazaacenaphthylen-2-yl)-1-(cyclopropylmethyl)-1H-pyrrolo[2,3-b]pyridin-6-yl)-N-methylmethanesulfonamide], the concentration for half-maximal inhibition (IC50) came out at 0.812 µM.
As for `CN(c1ccc2cc(-c3nc4cc(C(=O)N5[C@H]6CC[C@@H]5[C@H](N)C6)cc5c4n3CCO5)n(CC3CC3)c2n1)S(C)(=O)=O` [Example 90, N-(2-(7-((1R,2R,4S)-2-amino-7-azabicyclo[2.2.1]heptane-7-carbonyl)-3,4-dihydro-5-oxa-1,2a-diazaacenaphthylen-2-yl)-1-(cyclopropylmethyl)-1H-pyrrolo [2,3-b]pyridin-6-yl)-N-methylmethanesulfonamide], the figure is 0.214 µM; as for `C[C@H](CN)NC(=O)c1cc2nc(-c3cc4ccc(N(C(F)F)S(C)(=O)=O)nc4n3CC3CC3)n(C)c2cc1F` [Example 94, (R)-N-(1-aminopropan-2-yl)-2-(1-(cyclopropylmethyl)-6-((N-(difluoromethyl)methyl)sulfonamido)-1H-pyrrolo[2,3-b]pyridin-2-yl)-6-fluoro-1-methyl-1H-benzo[d]imidazole-5-carboxamide], 26.4 µM; as for `COc1cc(C(=O)N2CCC[C@@H](N)[C@H]2C)cc2nc(-c3cc4ccc(N=S(C)(C)=O)nc4n3CC3CC3)n(C)c12` [Example 95, ((2-(5-((2R,3R)-3-amino-2-methylpiperidine-1-carbonyl)-7-methoxy-1-methyl-1H-benzo[d]imidazol-2-yl)-1-(cyclopropylmethyl)-1H-pyrrolo [2,3-b]pyridin-6-yl)imino)dimethyl-16-sulfanone], 1.57 µM.
